Data: patent publication US11766411B2, “Use of cannabinoids in the treatment of epilepsy” (GW Research Limited, priority 2014, dated 2023)

Columns and labels:
[1] = tested on: adult patients with generalized epilepsy; conditions: eight adult patients with generalized epilepsy; cited from earlier work
[2] = tested on: institutionalized adult patients; conditions: 200 mg/day of pure CBD, twelve institutionalized adult patients, open label; cited from earlier work
[3] = tested on: mice; conditions: after administration of pro-convulsant drugs or an electric current; cited from earlier work
[4] = tested on: children and young adults with treatment-resistant Dravet syndrome; experiment: Expanded access compassionate use program, Dravet syndrome sub-group; assay type: in vivo, human
Protocol: (§1) Twenty-seven children and young adults with severe, childhood onset treatment-resistant epilepsy (TRE) were tested with a highly purified extract of cannabidiol (CBD) obtained from a cannabis plant. The participants in the study were part of an expanded access compassionate use program for CBD.
(§2) All patients entered a baseline period of 4 weeks when parents/caregivers kept prospective seizure diaries, noting all countable motor seizure types.
(§3) The patients then received a highly purified CBD extract (greater than 98% CBD w/w) in sesame oil, of known and constant composition, at a dose of 5 mg/kg/day in addition to their baseline anti-epileptic drug (AED) regimen.
(§4) Laboratory testing for hematologic, liver, kidney function, and concomitant AED levels was performed at baseline, and after 4, 8 and 12 weeks of CBD therapy.
Nine children and young adults with treatment-resistant Dravet syndrome were part of an expanded access compassionate use program for highly purified CBD extract as described in Example 1.

[5] = tested on: patients with FIRES; experiment: Expanded access program, febrile infection related epilepsy syndrome (FIRES) patients; assay type: in vivo, human; parameters: Change from Baseline: unit not given here; conditions: for % Change from Baseline / Change from Baseline / Frequency (per month) / Responder (>=50% Reduction) / Responder (>=70% Reduction) / Responder (>=90% Reduction) / Seizure Free: total seizures
Protocol: Three patients with FIRES, with an age range of from 4 to 15 years, were treated with CBD under an expanded access program as described previously in Example 1.
Safety laboratory studies, physical/neurological exams, 24 hour video/EEG and seizure types and frequencies were assessed at baseline and one month after starting CBD.
A highly purified extract of CBD as an oral solution in sesame oil was used at a concentration of 25 mg/mL.
Treatment was initiated at a dose of 10 mg/kg/day given in two divided doses, increasing by 5 mg/kg/day every 3 days.
Following seizure improvement an average of 2 AEDs were weaned.

[6] = tested on: children and young adults with severe, childhood onset treatment-resistant epilepsy (TRE); experiment: Expanded access compassionate use program of highly purified CBD extract added to baseline AED regimen; seizure diaries; assay type: in vivo, human
Protocol: as §1, §2, §3, §4

[7] = tested on: adult patients; conditions: 200 mg/day of pure CBD, four adult patients; cited from earlier work
[8] = tested on: children and young adults with treatment-resistant myoclonic absence seizures; experiment: Expanded access compassionate use program, myoclonic absence seizures sub-group; assay type: in vivo, human
Protocol: as §1, §2, §3, §4
Four children and young adults with treatment-resistant myoclonic absence seizures were part of an expanded access compassionate use program for highly purified CBD extract as described in Example 1.

[9] = 9 Dravet subjects, 3-month treatment period
[10] = Dravet patients (n = 9), after 3 months of therapy
[11] = FIRES patients (n = 3), after 12 weeks of treatment
[12] = 27 subjects, 3-month treatment period
[13] = All patients (excluding Dravet, MAS and FIRES) (n = 13), after 12 weeks of treatment
[14] = All patients excluding Dravet patients (n = 18), after 3 months
[15] = All patients excluding MAS patients (n = 23), after 3 months
[16] = co-treatment of CBD with clobazam
[17] = 4 MAS subjects, 3-month treatment period
[18] = MAS patients (n = 4), after 3 months of therapy

## C=C(C)[C@@H]1CCC(C)=C[C@H]1c1c(O)cc(CCCCC)cc1O [CBD, Cannabidiol]
[1]
  patients with a marked reduction of seizures: 4
[2]
  controlling seizures: ineffective
[3]
  prevention of seizures: able to prevent seizures
[4]; [9]
  Common adverse events: somnolence, fatigue, decreased appetite, increased appetite and diarrhoea
  adverse events: mild and well tolerated
  subjects who withdrew during the treatment period: None
[4]; [10]
  Responder rate (>50% reduction) [%]: 56%
  Responder rate (>50% reduction), number of patients: 5
  Responder rate (>70% reduction) [%]: 44%
  Responder rate (>70% reduction), number of patients: 4
  Responder rate (>90% reduction), number of patients: 3
  Seizure free [%]: 22%
  Seizure free, number of patients: 2
[5]; FIRES patients
  functional recovery after a reduction in seizures: able to walk and verbalise once more
[5]; [11]
  Responder rate (>50% reduction) [%]: 67%
  Responder rate (>50% reduction), number of patients: 2
  Responder rate (>70% reduction) [%]: 67%
  Responder rate (>70% reduction), number of patients: 2
  Responder rate (>90% reduction) [%]: 67%
  Responder rate (>90% reduction), number of patients: 2
  Seizure free [%]: 33%
  Seizure free, number of patients: 1
[5]; Patient 1, 24 week period
  seizure freedom over the treatment period: seizure free after starting treatment for almost all of the treatment period
[5]; Patient 2, after 4 weeks
  reduction in seizures: 50%
[5]; Patient 3, week 24
  reduction in the number of seizures: greater than 90%
[5]; in two of the three children with refractory seizures or status epilepticus due to FIRES
  improvement in clinical and electrographic seizure burden: greater than 90%
[5]; three FIRES patients
  Follow up laboratory tests (safety studies, concomitant AED levels): no changes in safety studies or concomitant AED levels
  tolerability: very well tolerated
  treatment related adverse effects: No treatment related adverse effects
[5]; Patient 1, Wk 4
  % Change from Baseline: −100.0%
  Change from Baseline: −4.0
  Frequency (per month): 0.0 per month
  Responder (>=50% Reduction): Yes
  Responder (>=70% Reduction): Yes
  Responder (>=90% Reduction): Yes
  Seizure Free: Yes
[5]; Patient 1, Wk 8
  % Change from Baseline: −75.0%
  Change from Baseline: −3.0
  Frequency (per month): 1.0 per month
  Responder (>=50% Reduction): Yes
  Responder (>=70% Reduction): Yes
  Responder (>=90% Reduction): No
  Seizure Free: No
[5]; Patient 1, Wk 12
  % Change from Baseline: −100.0%
  Change from Baseline: −4.0
  Frequency (per month): 0.0 per month
  Responder (>=50% Reduction): Yes
  Responder (>=70% Reduction): Yes
  Responder (>=90% Reduction): Yes
  Seizure Free: Yes
[5]; Patient 1, Wk 16
  % Change from Baseline: −100.0%
  Change from Baseline: −4.0
  Frequency (per month): 0.0 per month
  Responder (>=50% Reduction): Yes
  Responder (>=70% Reduction): Yes
  Responder (>=90% Reduction): Yes
  Seizure Free: Yes
[5]; Patient 1, Wk 24
  % Change from Baseline: −92.0%
  Change from Baseline: −3.7
  Frequency (per month): 0.3 per month
  Responder (>=50% Reduction): Yes
  Responder (>=70% Reduction): Yes
  Responder (>=90% Reduction): Yes
  Seizure Free: No
[5]; Patient 2, Wk 2
  % Change from Baseline: −88.6%
  Change from Baseline: −6.2
  Frequency (per month): 0.8 per month
  Responder (>=50% Reduction): Yes
  Responder (>=70% Reduction): Yes
  Responder (>=90% Reduction): No
  Seizure Free: No
[5]; Patient 2, Wk 4
  % Change from Baseline: −57.1%
  Change from Baseline: −4.0
  Frequency (per month): 3.0 per month
  Responder (>=50% Reduction): Yes
  Responder (>=70% Reduction): No
  Responder (>=90% Reduction): No
  Seizure Free: No
[5]; Patient 2, Wk 8
  % Change from Baseline: 42.9%
  Change from Baseline: 3.0
  Frequency (per month): 10.0 per month
  Responder (>=50% Reduction): No
  Responder (>=70% Reduction): No
  Responder (>=90% Reduction): No
  Seizure Free: No
[5]; Patient 2, Wk 12
  % Change from Baseline: 14.3%
  Change from Baseline: 1.0
  Frequency (per month): 8.0 per month
  Responder (>=50% Reduction): No
  Responder (>=70% Reduction): No
  Responder (>=90% Reduction): No
  Seizure Free: No
[5]; Patient 2, Wk 16
  % Change from Baseline: −42.9%
  Change from Baseline: −3.0
  Frequency (per month): 4.0 per month
  Responder (>=50% Reduction): No
  Responder (>=70% Reduction): No
  Responder (>=90% Reduction): No
  Seizure Free: No
[5]; Patient 3, Wk 4
  % Change from Baseline: −99.2%
  Change from Baseline: −5552.8
  Frequency (per month): 47.2 per month
  Responder (>=50% Reduction): Yes
  Responder (>=70% Reduction): Yes
  Responder (>=90% Reduction): Yes
  Seizure Free: No
[5]; Patient 3, Wk 8
  % Change from Baseline: −99.8%
  Change from Baseline: −5590.8
  Frequency (per month): 9.2 per month
  Responder (>=50% Reduction): Yes
  Responder (>=70% Reduction): Yes
  Responder (>=90% Reduction): Yes
  Seizure Free: No
[5]; Patient 3, Wk 12
  % Change from Baseline: −97.5%
  Change from Baseline: −5458.4
  Frequency (per month): 141.6 per month
  Responder (>=50% Reduction): Yes
  Responder (>=70% Reduction): Yes
  Responder (>=90% Reduction): Yes
  Seizure Free: No
[5]; Patient 3, Wk 24
  % Change from Baseline: −90.3%
  Change from Baseline: −5058.0
  Frequency (per month): 542.0 per month
  Responder (>=50% Reduction): Yes
  Responder (>=70% Reduction): Yes
  Responder (>=90% Reduction): Yes
  Seizure Free: No
[6]; [12]
  Common adverse events: somnolence, fatigue, decreased appetite, increased appetite and diarrhoea
  adverse events: mild and well tolerated
  subjects who withdrew during the treatment period: None
[6]; [13]
  Responder rate (>50% reduction) [%]: 38%
  Responder rate (>50% reduction), number of patients: 5
  Responder rate (>70% reduction) [%]: 31%
  Responder rate (>70% reduction), number of patients: 4
  Responder rate (>90% reduction) [%]: 8%
  Responder rate (>90% reduction), number of patients: 1
  Seizure free, number of patients: 0
[6]; All patients (n = 27), Month 3
  Responder rate (>50% reduction) [%]: 48%
  Responder rate (>50% reduction), number of patients: 13
  Responder rate (>70% reduction) [%]: 41%
  Responder rate (>70% reduction), number of patients: 11
  Responder rate (>90% reduction) [%]: 22%
  Responder rate (>90% reduction), number of patients: 6
  Seizure free [%]: 7%
[6]; [14]
  Responder rate (>50% reduction) [%]: 44%
  Responder rate (>50% reduction), number of patients: 8
  Responder rate (>70% reduction) [%]: 39%
  Responder rate (>70% reduction), number of patients: 7
  Responder rate (>90% reduction) [%]: 17%
  Responder rate (>90% reduction), number of patients: 3
  Seizure free, number of patients: 0
[6]; [15]
  Responder rate (>50% reduction) [%]: 48%
  Responder rate (>50% reduction), number of patients: 11
  Responder rate (>70% reduction) [%]: 39%
  Responder rate (>70% reduction), number of patients: 9
  Responder rate (>90% reduction) [%]: 22%
  Responder rate (>90% reduction), number of patients: 5
  Seizure free [%]: 9%
  Seizure free, number of patients: 2
[6]; [16]
  odds ratio (OR) for positive treatment response (greater than 50% responder rate), convulsive seizures: 1.9
  odds ratio (OR) for positive treatment response (greater than 50% responder rate), total seizure reduction: 3.3
[6]; doses up to 25 mg/kg/day
  tolerability: generally well-tolerated
[7]
  patients who became seizure free: two
[8]; [17]
  Common adverse events: somnolence, fatigue, decreased appetite, increased appetite and diarrhoea
  adverse events: mild and well tolerated
  subjects who withdrew during the treatment period: None
[8]; [18]
  Responder rate (>50% reduction), number of patients: 2
  Responder rate (>70% reduction) [%]: 50%
  Responder rate (>70% reduction), number of patients: 2
  Responder rate (>90% reduction) [%]: 25%
  Seizure free, number of patients: 0
